Measurements published in patent US20130244879A1, “USE OF LIPO-CHITOOLIGOSACCHARIDES TO INITIATE EARLY FLOWERING AND FRUIT DEVELOPMENT IN PLANTS AND RELATED METHODS AND COMPOSITIONS” (NOVOZYMES BIOLOGICALS HOLDING A/S, priority 2003, published 2013).

Experiments:
Type in all cases: in vivo
[1] = tested on: Cobra tomatoes; experiment: Trial 1: LCO dose and delivery medium on greenhouse tomato (Cobra); details: for more flowers than other treatments and control: 50 ng LCO
Experimental: Cobra (a hybrid cultivar) was used to examine optimum application dose between 10 and 100 ng/plant at one or two applications and the LCO delivery medium. The levels chosen were the extremes of beneficial doses determined previously in tomato field trials. The delivery media tested were LCO in water, Apex and centrifuged Apex. The first application of LCO was made 10 days after transplanting. When applied a second time it was 2 weeks after the first application. The following parameters were tested: leaf number, plant height, number of cluster, number of flower, number of fruit. Observations were made continuously for approximately a two-month period, at one-week intervals until plant growth was limited by pot bound roots. The cobra seedlings were transplanted 32 days after seeding, the first application was 10 days thereafter, the second application was 14 days after the first application. The fruits were harvested 6 weeks after the second application.

[2] = tested on: Cobra tomatoes; experiment: Trial 2: LCO dose and timing on greenhouse tomato (Cobra)
Experimental: The Cobra variety was used to re-examine optimal doses of LCO. The concentrations tested were 50 ng and 75 ng LCO per plant, applied once (2 weeks after transplanting) and twice (4 weeks after transplanting). The sample number was increased to 20 plants.

[3] = tested on: greenhouse-grown tomato plants; experiment: Experiments 1 and 2: effect of LCO on tomato flowering; details: for difference in flowering between LCO treated plants and control: Experiment 2
Experimental: Two experiments were performed to investigate effect of LCO on plant's flowering using greenhouse-grown tomato plants.

[4] = tested on: grain corn (cv. DK376); experiment: Experiment 9: effect of LCO on grain corn yield
From the text: Fertilizer (36-12-18) was applied to the corn field at a rate of 500 kg/ha before seeding. A machine planter was employed to plant the grain (cv. DK376, HU2650, Fludioxnil coated). To protect corn ears from bird damage, grain corn ears in the middle two rows were covered with plastic nets after silking. LCO was applied to corn plants at a rate of 200 L/ha for the first application 40 days after planting and at 400 L/ha for the second application 58 days after planting. The two protected middle rows of plants were harvested by a combine 152 days after planting. […] The total grain yield increased for all but the 10^−8M double application.

## Lipo-chitooligosaccharides [LCO]
[1]; 10 ng, Dec. 30
  Number of Flowers/Plant: 1.2
[1]; 10 ng, Jan. 07
  Number of Flowers/Plant: 2.4
  Number of Fruit/Plant: 0.3
[1]; 10 ng, Jan. 15
  Number of Flowers/Plant: 4.4
  Number of Fruit/Plant: 1.8
[1]; 10 ng, Jan. 22
  Number of Flowers/Plant: 5.6
  Number of Fruit/Plant: 2.1
[1]; 10 ng, Jan. 31
  Number of Flowers/Plant: 8.1
  Number of Fruit/Plant: 2.5
[1]; 10 ng, Mean of bases
  Fruit Weight: 87.09 Gram/Plant
[1]; 10 ng, base Bacterial Camer
  Fruit Weight: 97.97 Gram/Plant
[1]; 10 ng, base Bacterial Supernatent
  Fruit Weight: 67.2 Gram/Plant
[1]; 10 ng, base Water
  Fruit Weight: 96.11 Gram/Plant
[1]; 50 ng LCO treatment
  early yield (fruit weight) vs untreated control: statistically significant effect
[1]; January 15
  more flowers than other treatments and control: 21%
[1]; January 22
  more flowers than other treatments and control: 14%
[1]; 50 ng, Dec. 30
  Number of Flowers/Plant: 0.97
[1]; 50 ng, Jan. 07
  Number of Flowers/Plant: 2.5
  Number of Fruit/Plant: 0.33
[1]; 50 ng, Jan. 15
  Number of Flowers/Plant: 5.2
  Number of Fruit/Plant: 2.2
[1]; 50 ng, Jan. 22
  Number of Flowers/Plant: 6.7
  Number of Fruit/Plant: 2.5
[1]; 50 ng, Jan. 31
  Number of Flowers/Plant: 8.7
  Number of Fruit/Plant: 2.9
[1]; 50 ng, Mean of bases
  Fruit Weight: 104.26 Gram/Plant
[1]; 50 ng, base Bacterial Camer
  Fruit Weight: 103.32 Gram/Plant
[1]; 50 ng, base Bacterial Supernatent
  Fruit Weight: 100.48 Gram/Plant
[1]; 50 ng, base Water
  Fruit Weight: 108.99 Gram/Plant
[1]; 100 ng, Dec. 30
  Number of Flowers/Plant: 0.9
[1]; 100 ng, Jan. 07
  Number of Flowers/Plant: 2.2
  Number of Fruit/Plant: 0.37
[1]; 100 ng, Jan. 15
  Number of Flowers/Plant: 4.4
  Number of Fruit/Plant: 1.7
[1]; 100 ng, Jan. 22
  Number of Flowers/Plant: 6.2
  Number of Fruit/Plant: 2.1
[1]; 100 ng, Jan. 31
  Number of Flowers/Plant: 8.7
  Number of Fruit/Plant: 2.6
[1]; 100 ng, Mean of bases
  Fruit Weight: 87.99 Gram/Plant
[1]; 100 ng, base Bacterial Camer
  Fruit Weight: 66.26 Gram/Plant
[1]; 100 ng, base Bacterial Supernatent
  Fruit Weight: 109.13 Gram/Plant
[1]; 100 ng, base Water
  Fruit Weight: 88.57 Gram/Plant
[1]; Trial 1, FIG. 5, Table 3
  advance of flowering over control: 4 to 5 days
[1]; Trial 1, second graph
  advance in early fruiting over control: 8 to 9 days
[1]; three to four weeks after application
  optimal application (early fruit set): approximately 50 ng per plant
[2]; 50 ng treatment
  advance in flowering (attaining same flower number as control): ~3 days
[2]; 50 ng/plant application twice
  advance of equivalent fruit numbers over control: 2 weeks
[2]; LCO 50 ng once, April 4
  Flower Number/Plant: 32.45
  Fruit Number/Plant: 1.3 b
[2]; LCO 50 ng once, Feb. 28
  Flower Number/Plant: 0.0 b
[2]; LCO 50 ng once, Mar. 7
  Flower Number/Plant: 2.5 ab
[2]; LCO 50 ng once, Mar. 14
  Flower Number/Plant: 7.4 ab
  Fruit Number/Plant: 0.05 b
[2]; LCO 50 ng once, Mar. 21
  Flower Number/Plant: 14.55
  Fruit Number/Plant: 0.25
[2]; LCO 50 ng once, Mar. 28
  Flower Number/Plant: 23.95
  Fruit Number/Plant: 0.525 c
[2]; LCO 50 ng twice, April 4
  Flower Number/Plant: 32.2
  Fruit Number/Plant: 2.5 a
[2]; LCO 50 ng twice, Feb. 28
  Flower Number/Plant: 0.2 a
[2]; LCO 50 ng twice, Mar. 7
  Flower Number/Plant: 3.2 a
[2]; LCO 50 ng twice, Mar. 14
  Flower Number/Plant: 8.4 a
  Fruit Number/Plant: 0.75 a
[2]; LCO 50 ng twice, Mar. 21
  Flower Number/Plant: 16.0
  Fruit Number/Plant: 1.8 a
[2]; LCO 50 ng twice, Mar. 28
  Flower Number/Plant: 25.15
  Fruit Number/Plant: 2.025 a
[2]; LCO 75 ng once, April 4
  Flower Number/Plant: 28.0
  Fruit Number/Plant: 1.45 b
[2]; LCO 75 ng once, Feb. 28
  Flower Number/Plant: 0.0 b
[2]; LCO 75 ng once, Mar. 7
  Flower Number/Plant: 2.85 ab
[2]; LCO 75 ng once, Mar. 14
  Flower Number/Plant: 7.35 ab
  Fruit Number/Plant: 0.45 ab
[2]; LCO 75 ng once, Mar. 21
  Flower Number/Plant: 14.2
  Fruit Number/Plant: 0.9 bc
[2]; LCO 75 ng once, Mar. 28
  Flower Number/Plant: 21.4
  Fruit Number/Plant: 1.15 bc
[2]; LCO 75 ng twice, April 4
  Flower Number/Plant: 31.0
  Fruit Number/Plant: 1.9 ab
[2]; LCO 75 ng twice, Feb. 28
  Flower Number/Plant: 0.0 b
[2]; LCO 75 ng twice, Mar. 7
  Flower Number/Plant: 3.25 a
[2]; LCO 75 ng twice, Mar. 14
  Flower Number/Plant: 7.35 ab
  Fruit Number/Plant: 0.6 ab
[2]; LCO 75 ng twice, Mar. 21
  Flower Number/Plant: 15.4
  Fruit Number/Plant: 1.0 b
[2]; LCO 75 ng twice, Mar. 28
  Flower Number/Plant: 23.35
  Fruit Number/Plant: 1.325 ab
[3]; Experiment 1
  LCO treated plants flowered 3 days earlier than control: over 80%
  shift in time of flowering: 3 days
[3]; Experiment 1, day 4 of assessment
  more plants flowering as compared to control: 35%
[3]; Experiment 1, day I of assessment
  more plants flowering as compared to control: 25%
[3]; day 3 of assessment
  difference in flowering between LCO treated plants and control: 20%
[3]; initially
  difference in flowering between LCO treated plants and control: 10%
[4]; 10^−7M once
  Dry Yield (kg/2 rows): 3.44 kg/2 rows
  Dry yield (kg/ha): 5730.6 kg/ha
  Ears/2 rows: 37.25ab
  Fresh Yield (kg/2 rows): 4.40 kg/2 rows
  Fresh Yield (kg/ha): 7333.3 kg/ha
[4]; 10^−7M twice
  Dry Yield (kg/2 rows): 3.96 kg/2 rows
  Dry yield (kg/ha): 6606.5 kg/ha
  Ears/2 rows: 40.00a
  Fresh Yield (kg/2 rows): 5.03 kg/2 rows
  Fresh Yield (kg/ha): 8383.3 kg/ha
[4]; 10^−8M once
  Dry Yield (kg/2 rows): 3.62 kg/2 rows
  Dry yield (kg/ha): 6040.4 kg/ha
  Ears/2 rows: 37.00ab
  Fresh Yield (kg/2 rows): 4.57 kg/2 rows
  Fresh Yield (kg/ha): 7616.7 kg/ha
[4]; 10^−8M twice
  Dry Yield (kg/2 rows): 3.23 kg/2 rows
  Dry yield (kg/ha): 5387.1 kg/ha
  Ears/2 rows: 32.25bc
  Fresh Yield (kg/2 rows): 4.12 kg/2 rows
  Fresh Yield (kg/ha): 6866.7 kg/ha
[4]; 10^−9M once
  Dry Yield (kg/2 rows): 3.77 kg/2 rows
  Dry yield (kg/ha): 6275.6 kg/ha
  Ears/2 rows: 39.00ab
  Fresh Yield (kg/2 rows): 4.75 kg/2 rows
  Fresh Yield (kg/ha): 7916.7 kg/ha
[4]; 10^−9M twice
  Dry Yield (kg/2 rows): 3.57 kg/2 rows
  Dry yield (kg/ha): 5953.5 kg/ha
  Ears/2 rows: 37.25ab
  Fresh Yield (kg/2 rows): 4.55 kg/2 rows
  Fresh Yield (kg/ha): 7583.3 kg/ha
[4]; all treatments except the 10^−8M double application
  Ear number over untreated control: significantly increased
